Assay results published in US11492361B2, “Compounds useful in HIV therapy” (GlaxoSmithKline Intellectual Property Development Limited, priority 2018, dated 2022).
Structures can show the parent of a compound that is named as a salt.

System: Jurkat HIV-luciferase clones
Test: Jurkat latency reversal assay
Format: cell-based
Settings: Homo sapiens, Jurkat, 48 h
Description: Jurkat HIV-luciferase clones were maintained in RPMI medium 1640 (Gibco by Life Technologies) containing 10% (vol/vol) fetal bovine serum (SAFC/Sigma-Aldrich) and 25 units/mL penicillin, 25 units/mL streptomycin (Gibco by Life Technologies), and were split 1:4 every 3 to 4 days to maintain a cell density of ˜0.3 to 1 million cells/mL. The Jurkat clones were maintained with the addition of 500 nM EFV in the medium. Three Jurkat cell clones (C16, I15, and N6), each harboring one or two integrated HIV proviruses expressing the luciferase reporter gene, were added at equal amounts for a total of 5,000 cells per well to 384-well plates containing compound titrations. Dose-response testing was performed on compounds dissolved in dimethyl sulfoxide (DMSO, Fisher Scientific, Merelbeke, Belgium) dispensed in duplicate serial 3-fold, 14-point titrations using a D300e Digital Droplet Dispenser (Hewlett-Packard) to give final assay concentrations of 10 μM to 2.1 pM in 50 μL of medium at 0.5% DMSO (vol/vol) final concentration. Cells and compound were incubated at 37° C. for 48 hours, unless otherwise indicated, followed by the addition of 20 μL of Steady-Glo® Luciferase (Promega). Luminescence resulting from the induction of the virally expressed luciferase was measured using an EnVision 2102 Multilabel Plate Reader (Perkin Elmer). Dose-response relationships were analyzed with GraphPad PRISM 6 using a four-parameter logistic regression model to calculate the concentration of compound that gives half-maximal response (EC50) and the maximal percent activation compared to the vehicle control.

Structure (SMILES): CN[C@@H](C)C(=O)N[C@H]1CCS[C@H]2CC(C)(C)[C@@H](C(=O)N[C@H]3c4ccccc4C[C@H]3OCCCCO[C@@H]3Cc4ccccc4[C@@H]3NC(=O)[C@H]3N4C(=O)[C@@H](NC(=O)[C@H](C)NC)CCS[C@H]4CC3(C)C)N2C1=O [compound 16, (4S,4′S,7S,7′S,9aS,9a′S)-N,N′-((1S,1′S,2R,2′R)-(butane-1,4-diylbis(oxy))bis(2,3-dihydro-1H-indene-2,1-diyl))bis(8,8-dimethyl-4-((S)-2-(methylamino)propanamido)-5-oxooctahydropyrrolo[2,1-b][1,3]thiazepine-7-carboxamide)]
- EC50: 10.1 nM

Structure (SMILES): CN[C@@H](C)C(=S)N[C@H]1CCS[C@H]2CC(C)(C)[C@@H](C(=O)N[C@H]3c4ccccc4C[C@H]3OCC#CC#CCO[C@@H]3Cc4ccccc4[C@@H]3NC(=O)[C@H]3N4C(=O)[C@@H](NC(=S)[C@H](C)NC)CCS[C@H]4CC3(C)C)N2C1=O [compound 15, (4S,4′S,7S,7′S,9aS,9a′S)-N,N′-((1S,1′S,2R,2′R)-(hexa-2,4-diyne-1,6-diylbis(oxy))bis(2,3-dihydro-1H-indene-2,1-diyl))bis(8,8-dimethyl-4-((S)-2-(methylamino)propanethioamido)-5-oxooctahydropyrrolo[2,1-b][1,3]thiazepine-7-carboxamide)]
- EC50: 15.3 nM

Structure (SMILES): CN[C@@H](C)C(=O)N[C@H]1CCS[C@H]2CC(C)(C)[C@@H](C(=O)N[C@H]3c4ccccc4C[C@H]3C(=O)NCc3ccc(CNC(=O)[C@@H]4Cc5ccccc5[C@@H]4NC(=O)[C@H]4N5C(=O)[C@@H](NC(=O)[C@H](C)NC)CCS[C@H]5CC4(C)C)cc3)N2C1=O [compound 45, (4S,7S,9aS)-N-[(1R,2R)-2-({[4-({[(1R,2R)-1-[(4S,7S,9aS)-8,8-dimethyl-4-[(2S)-2-(methylamino)propanamido]-5-oxo-octahydropyrrolo[2,1-b][1,3]thiazepine-7-amido]-2,3-dihydro-1H-inden-2-yl]formamido}methyl)phenyl]methyl}carbamoyl)-2,3-dihydro-1H-inden-1-yl]-8,8-dimethyl-4-[(2S)-2-(methylamino)propanamido]-5-oxo-octahydropyrrolo[2,1-b][1,3]thiazepine-7-carboxamide]
- EC50: 183 nM

Structure (SMILES): CN[C@@H](C)C(=O)N[C@H]1CCS[C@H]2CC(C)(C)[C@@H](C(=O)Nc3ccccc3CCc3ccccc3NC(=O)[C@H]3N4C(=O)[C@@H](NC(=O)[C@H](C)NC)CCS[C@H]4CC3(C)C)N2C1=O [compound 3, (4S,4′S,7S,7′S,9aS,9a′S)-N,N′-(ethane-1,2-diylbis(2,1-phenylene))bis(8,8-dimethyl-4-((S)-2-(methylamino)propanamido)-5-oxooctahydropyrrolo[2,1-b][1,3]thiazepine-7-carboxamide) dihydrochloride]
- EC50: 80.5 nM

Structure (SMILES): CN[C@@H](C)C(=O)N[C@H]1CCS[C@H]2CC(C)(C)[C@@H](C(=O)N[C@H]3c4ccccc4C[C@H]3OCCCCCCCCCCO[C@@H]3Cc4ccccc4[C@@H]3NC(=O)[C@H]3N4C(=O)[C@@H](NC(=O)[C@H](C)NC)CCS[C@H]4CC3(C)C)N2C1=O [compound 57, (4S,4′S,7S,7′S,9aS,9a′S)-N,N′-((1S,1′S,2R,2′R)-(decane-1,10-diylbis(oxy))bis(2,3-dihydro-1H-indene-2,1-diyl))bis(8,8-dimethyl-4-((S)-2-(methylamino)propanamido)-5-oxooctahydropyrrolo[2,1-b][1,3]thiazepine-7-carboxamide) dihydrochloride]
- EC50: 8.5 nM

Structure (SMILES): CN[C@@H](C)C(=O)N[C@H]1CCS[C@H]2CC(C)(C)[C@@H](C(=O)N[C@H](C(=O)N3CCN(C(=O)[C@@H](NC(=O)[C@H]4N5C(=O)[C@@H](NC(=O)[C@H](C)NC)CCS[C@H]5CC4(C)C)c4ccccc4)CC3)c3ccccc3)N2C1=O [compound 26, (4S,4′S,7S,7′S,9aS,9a′S)-N,N′-((1S,1′S)-piperazine-1,4-diylbis(2-oxo-1-phenylethane-2,1-diyl))bis(8,8-dimethyl-4-((S)-2-(methylamino)propanamido)-5-oxooctahydropyrrolo[2,1-b][1,3]thiazepine-7-carboxamide) dihydrochloride]
- EC50: 69.1 nM

Structure (SMILES): CN[C@@H](C)C(=O)N[C@H]1CCS[C@H]2CC(C)(C)[C@@H](C(=O)N[C@H](C(=O)NCc3ccc(CNC(=O)[C@@H](NC(=O)[C@H]4N5C(=O)[C@@H](NC(=O)[C@H](C)NC)CCS[C@H]5CC4(C)C)c4ccccc4)cc3)c3ccccc3)N2C1=O [compound 24, (4S,4′S,7S,7′S,9aS,9a′S)-N,N′-((1S,1′S)-((1,4-phenylenebis(methylene))bis(azanediyl))bis(2-oxo-1-phenylethane-2,1-diyl))bis(8,8-dimethyl-4-((S)-2-(methylamino)propanamido)-5-oxooctahydropyrrolo[2,1-b][1,3]thiazepine-7-carboxamide)]
- EC50: 47.9 nM

Structure (SMILES): CN[C@@H](C)C(=S)N[C@H]1CCS[C@H]2CC(C)(C)[C@@H](C(=O)N[C@H](C(=O)NCC#CC#CCNC(=O)[C@@H](NC(=O)[C@H]3N4C(=O)[C@@H](NC(=S)[C@H](C)NC)CCS[C@H]4CC3(C)C)c3ccccc3)c3ccccc3)N2C1=O [compound 32, (4S,4′S,7S,7′S,9aS,9a′S)-N,N′-((1S,1′S)-(hexa-2,4-diyne-1,6-diylbis(azanediyl))bis(2-oxo-1-phenylethane-2,1-diyl))bis(8,8-dimethyl-4-((S)-2-(methylamino)propanethioamido)-5-oxooctahydropyrrolo[2,1-b][1,3]thiazepine-7-carboxamide)]
- EC50: 166 nM

Structure (SMILES): CN[C@@H](C)C(=S)N[C@H]1CCS[C@H]2CC(C)(C)[C@@H](C(=O)N[C@H]3c4ccccc4C[C@H]3OCc3ccc(CO[C@@H]4Cc5ccccc5[C@@H]4NC(=O)[C@H]4N5C(=O)[C@@H](NC(=S)[C@H](C)NC)CCS[C@H]5CC4(C)C)cc3)N2C1=O [compound 23, (4S,4′S,7S,7′S,9aS,9a′S)-N,N′-((1S,1′S,2R,2′R)-((1,4-phenylenebis(methylene))bis(oxy))bis(2,3-dihydro-1H-indene-2,1-diyl))bis(8,8-dimethyl-4-((S)-2-(methylamino)propanethioamido)-5-oxooctahydropyrrolo[2,1-b][1,3]thiazepine-7-carboxamide)]
- EC50: 55.5 nM

Structure (SMILES): CN[C@@H](C)C(=S)N[C@H]1CCS[C@H]2CC(C)(C)[C@@H](C(=O)N[C@H](COCc3ccc(COC[C@@H](NC(=O)[C@H]4N5C(=O)[C@@H](NC(=S)[C@H](C)NC)CCS[C@H]5CC4(C)C)c4ccccc4)cc3)c3ccccc3)N2C1=O [compound 43, (4S,4′S,7S,7′S,9aS,9a′S)-N,N′-((1S,1′S)-((1,4-phenylenebis(methylene))bis(oxy))bis(1-phenylethane-2,1-diyl))bis(8,8-dimethyl-4-((S)-2-(methylamino)propanethioamido)-5-oxooctahydropyrrolo[2,1-b][1,3]thiazepine-7-carboxamide) dihydrochloride]
- EC50: 43.4 nM

Structure (SMILES): CN[C@@H](C)C(=S)N[C@H]1CCS[C@H]2CC(C)(C)[C@@H](C(=O)N[C@H]3c4ccccc4C[C@H]3OCCCCO[C@@H]3Cc4ccccc4[C@@H]3NC(=O)[C@H]3N4C(=O)[C@@H](NC(=S)[C@H](C)NC)CCS[C@H]4CC3(C)C)N2C1=O [compound 17, (4S,4′S,7S,7′S,9aS,9a′S)-N,N′-((1S,1′S,2R,2′R)-(butane-1,4-diylbis(oxy))bis(2,3-dihydro-1H-indene-2,1-diyl))bis(8,8-dimethyl-4-((S)-2-(methylamino)propanethioamido)-5-oxooctahydropyrrolo[2,1-b][1,3]thiazepine-7-carboxamide) dihydrochloride]
- EC50: 20.7 nM

Structure (SMILES): CN[C@@H](C)C(=O)N[C@H]1CCS[C@H]2CC(C)(C)[C@@H](C(=O)N[C@H](COCCCCOC[C@@H](NC(=O)[C@H]3N4C(=O)[C@@H](NC(=O)[C@H](C)NC)CCS[C@H]4CC3(C)C)c3ccccc3)c3ccccc3)N2C1=O [compound 36, (4S,4′S,7S,7′S,9aS,9a′S)-N,N′-((1S,1′S)-(butane-1,4-diylbis(oxy))bis(1-phenylethane-2,1-diyl))bis(8,8-dimethyl-4-((S)-2-(methylamino)propanamido)-5-oxooctahydropyrrolo[2,1-b][1,3]thiazepine-7-carboxamide) dihydrochloride]
- EC50: 9.5 nM

Structure (SMILES): CN[C@@H](C)C(=O)N[C@H]1CCS[C@H]2CC(C)(C)[C@@H](C(=O)N[C@H](COCc3ccc4ccc(COC[C@@H](NC(=O)[C@H]5N6C(=O)[C@@H](NC(=O)[C@H](C)NC)CCS[C@H]6CC5(C)C)c5ccccc5)cc4c3)c3ccccc3)N2C1=O [compound 56, (4S,4′S,7S,7′S,9aS,9a′S)-N,N′-((1S,1′S)-((naphthalene-2,7-diylbis(methylene))bis(oxy))bis(1-phenylethane-2,1-diyl))bis(8,8-dimethyl-4-((S)-2-(methylamino)propanamido)-5-oxooctahydropyrrolo[2,1-b][1,3]thiazepine-7-carboxamide)]
- EC50: 2.9 nM

Structure (SMILES): CN[C@@H](C)C(=O)N[C@H]1CCS[C@H]2CC(C)(C)[C@@H](C(=O)Nc3ccc(Cc4ccc(NC(=O)[C@H]5N6C(=O)[C@@H](NC(=O)[C@H](C)NC)CCS[C@H]6CC5(C)C)cc4)cc3)N2C1=O [compound 1, (4S,4′S,7S,7′S,9aS,9a′S)-N,N′-(methylenebis(4,1-phenylene))bis(8,8-dimethyl-4-((S)-2-(methylamino)propanamido)-5-oxooctahydropyrrolo[2,1-b][1,3]thiazepine-7-carboxamide)]
- EC50: 47 nM
